Data as given in PubChem BioAssay (NCI).
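Test compounds were applied to cells in 96-well plates for 48 hours at 5 doses. GI50 marks 50% less growth. TGI: total growth inhibition.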

Key:
Experiment in all cases: NCI-60 cell line screen, 48 h
[1] = system: 786-0 renal
[2] = system: A498 renal
[3] = system: A549 NSCLC
[4] = system: ACHN renal
[5] = system: BT-549 breast
[6] = system: CAKI-1 renal
[7] = system: CCRF-CEM leukemia
[8] = system: COLO 205 colon
[9] = system: DU-145 prostate
[10] = system: EKVX NSCLC
[11] = system: HCC-2998 colon
[12] = system: HCT-116 colon
[13] = system: HCT-15 colon
[14] = system: HL-60(TB) leukemia
[15] = system: HOP-62 NSCLC
[16] = system: HOP-92 NSCLC
[17] = system: HS 578T breast
[18] = system: IGROV1 ovarian
[19] = system: KM12 colon
[20] = system: LOX IMVI melanoma
[21] = system: M14 melanoma
[22] = system: MALME-3M melanoma
[23] = system: MCF7 breast
[24] = system: MDA-MB-231 breast
[25] = system: MDA-MB-435
[26] = system: MOLT-4 leukemia
[27] = system: NCI-H226 lung
[28] = system: NCI-H23 lung
[29] = system: NCI-H460 lung
[30] = system: NCI/ADR-RES ovarian
[31] = system: OVCAR-3 ovarian
[32] = system: OVCAR-4 ovarian
[33] = system: OVCAR-5 ovarian
[34] = system: OVCAR-8 ovarian
[35] = system: PC-3 prostate
[36] = system: RPMI-8226 leukemia
[37] = system: RXF 393 renal
[38] = system: SF-268 CNS
[39] = system: SF-295 CNS
[40] = system: SF-539 CNS
[41] = system: SK-MEL-2 melanoma
[42] = system: SK-MEL-28 melanoma
[43] = system: SK-MEL-5 melanoma
[44] = system: SK-OV-3 ovarian
[45] = system: SN12C renal
[46] = system: SNB-19 CNS
[47] = system: SNB-75 CNS
[48] = system: SR leukemia
[49] = system: SW-620 colon
[50] = system: T-47D breast
[51] = system: TK-10 renal
[52] = system: U251 CNS
[53] = system: UACC-257 melanoma
[54] = system: UACC-62 melanoma
[55] = system: UO-31 renal
[56] = system: HT29 colon
[57] = system: K-562 leukemia
[58] = system: NCI-H522 lung

## C[C@]12CCc3nc(Nc4ccc(O)cc4)sc3C1=CC[C@@H]1[C@@H]2CC[C@]2(C)/C(=N/NC(N)=S)CC[C@@H]12
[1]
  GI50: 1.64 µM
  TGI: 3.09 µM
[2]
  GI50: 2.09 µM
  TGI: 4.9 µM
[3]
  GI50: 0.498 µM
  TGI: 1.86 µM
[4]
  GI50: 1.59 µM
  TGI: 2.99 µM
[5]
  GI50: 1.47 µM
  TGI: 3.99 µM
[6]
  GI50: 1.59 µM
  TGI: 3.4 µM
[7]
  GI50: 0.629 µM
  TGI: > 100 µM
[8]
  GI50: 1.56 µM
  TGI: 3.39 µM
[9]
  GI50: 1.64 µM
  TGI: 3.15 µM
[10]
  GI50: 1.57 µM
  TGI: 3.61 µM
[11]
  GI50: 1.89 µM
  TGI: 4.3 µM
[12]
  GI50: 1.15 µM
  TGI: 2.57 µM
[13]
  GI50: 1.24 µM
  TGI: 3.03 µM
[14]
  GI50: 1.88 µM
  TGI: 5.07 µM
[15]
  GI50: 1.7 µM
  TGI: 4.21 µM
[16]
  GI50: 1.71 µM
  TGI: 4.2 µM
[17]
  GI50: 1.75 µM
  TGI: 6.36 µM
[18]
  GI50: 1.45 µM
  TGI: 3 µM
[19]
  GI50: 1.26 µM
  TGI: 2.74 µM
[20]
  GI50: 1.52 µM
  TGI: 2.86 µM
[21]
  GI50: 1.18 µM
  TGI: 2.9 µM
[22]
  GI50: 1.12 µM
  TGI: 2.38 µM
[23]
  GI50: 1.15 µM
  TGI: 3.01 µM
[24]
  GI50: 1.88 µM
  TGI: 4.79 µM
[25]
  GI50: 0.664 µM
  TGI: 2.05 µM
[26]
  GI50: 0.47 µM
  TGI: 3.39 µM
[27]
  GI50: 1.71 µM
  TGI: 4.05 µM
[28]
  GI50: 1.8 µM
  TGI: 4.36 µM
[29]
  GI50: 0.525 µM
  TGI: 1.94 µM
[30]
  GI50: 2.38 µM
  TGI: 7.51 µM
[31]
  GI50: 1.56 µM
  TGI: 3.12 µM
[32]
  GI50: 1.6 µM
  TGI: 3.43 µM
[33]
  GI50: 1.98 µM
  TGI: 4.8 µM
[34]
  GI50: 1.74 µM
  TGI: 4.55 µM
[35]
  GI50: 1.58 µM
  TGI: 5.28 µM
[36]
  GI50: 1.49 µM
  TGI: 5.8 µM
[37]
  GI50: 1.23 µM
  TGI: 2.69 µM
[38]
  GI50: 1.34 µM
  TGI: 3.98 µM
[39]
  GI50: 1.57 µM
  TGI: 3.48 µM
[40]
  GI50: 1.49 µM
  TGI: 3.09 µM
[41]
  GI50: 1.69 µM
  TGI: 3.52 µM
[42]
  GI50: 1.51 µM
  TGI: 3.4 µM
[43]
  GI50: 1.66 µM
  TGI: 3.14 µM
[44]
  GI50: 1.62 µM
  TGI: 3.25 µM
[45]
  GI50: 1.53 µM
  TGI: 3.37 µM
[46]
  GI50: 1.38 µM
  TGI: 2.94 µM
[47]
  GI50: 0.68 µM
  TGI: 2.46 µM
[48]
  GI50: 0.454 µM
  TGI: > 100 µM
[49]
  GI50: 1.29 µM
  TGI: 3.26 µM
[50]
  GI50: 1.51 µM
  TGI: 3.57 µM
[51]
  GI50: 2.13 µM
  TGI: 4.35 µM
[52]
  GI50: 1.29 µM
  TGI: 2.6 µM
[53]
  GI50: 2.04 µM
  TGI: 5.61 µM
[54]
  GI50: 1.43 µM
  TGI: 2.89 µM
[55]
  GI50: 1.3 µM
  TGI: 2.57 µM

## O=c1[nH]c2ccccc2cc1-c1nnc(Cc2ccccc2)o1
[1]
  GI50: 4 µM
  TGI: 14.6 µM
[2]
  GI50: 13.3 µM
  TGI: 27.1 µM
[3]
  GI50: 15.7 µM
  TGI: > 100 µM
[5]
  GI50: 2.56 µM
  TGI: 10.2 µM
[6]
  GI50: 3.65 µM
  TGI: 14.4 µM
[7]
  GI50: 1.7 µM
  TGI: 7.79 µM
[8]
  GI50: 3.55 µM
  TGI: 13.2 µM
[9]
  GI50: 5.18 µM
  TGI: 18.5 µM
[11]
  GI50: 12.7 µM
  TGI: 27.5 µM
[12]
  GI50: 1.41 µM
  TGI: 3.1 µM
[13]
  GI50: 3.3 µM
  TGI: 13.5 µM
[14]
  GI50: 3.43 µM
  TGI: 21.2 µM
[15]
  GI50: 12.6 µM
  TGI: 34.3 µM
[16]
  GI50: 3.34 µM
  TGI: 15.3 µM
[17]
  GI50: 13.3 µM
  TGI: > 100 µM
[56]
  GI50: 3.78 µM
  TGI: 12.9 µM
[18]
  GI50: 5.2 µM
  TGI: 27.1 µM
[57]
  GI50: 3.29 µM
  TGI: 14.4 µM
[19]
  GI50: 10.4 µM
  TGI: 28.4 µM
[20]
  GI50: 1.75 µM
  TGI: 4.3 µM
[21]
  GI50: 3.16 µM
  TGI: 15.2 µM
[22]
  GI50: 3.94 µM
  TGI: 16.2 µM
[23]
  GI50: 2.41 µM
  TGI: 12.9 µM
[24]
  GI50: 3.29 µM
  TGI: 14.7 µM
[25]
  GI50: 3.51 µM
  TGI: 17.5 µM
[26]
  GI50: 2.67 µM
  TGI: 9.22 µM
[27]
  GI50: 11.5 µM
  TGI: 94.4 µM
[28]
  GI50: 11.3 µM
  TGI: 39.5 µM
[29]
  GI50: 6.63 µM
  TGI: 28.3 µM
[58]
  GI50: 2.27 µM
  TGI: 5.9 µM
[30]
  GI50: 14.4 µM
  TGI: 71.1 µM
[31]
  GI50: 3.25 µM
  TGI: 11 µM
[32]
  GI50: 4.23 µM
  TGI: 18.3 µM
[35]
  GI50: 4.16 µM
  TGI: 70.6 µM
[36]
  GI50: 1.94 µM
  TGI: 6.67 µM
[37]
  GI50: 2.93 µM
  TGI: 10.9 µM
[38]
  GI50: 10.7 µM
  TGI: 42 µM
[39]
  GI50: 11.2 µM
  TGI: 32.2 µM
[43]
  GI50: 3.43 µM
  TGI: 16.4 µM
[44]
  GI50: 18.3 µM
  TGI: 38.1 µM
[45]
  GI50: 3.46 µM
  TGI: 28.2 µM
[46]
  GI50: 12.9 µM
  TGI: 38.1 µM
[47]
  GI50: 6.07 µM
  TGI: 21.4 µM
[48]
  GI50: 2.03 µM
  TGI: 10.9 µM
[49]
  GI50: 1.87 µM
  TGI: 4.16 µM
[50]
  GI50: 3.04 µM
  TGI: 17.1 µM
[51]
  GI50: 5.23 µM
  TGI: 16 µM
[52]
  GI50: 4.12 µM
  TGI: 14.9 µM
[53]
  GI50: 4.79 µM
  TGI: 24.4 µM
[54]
  GI50: 3.43 µM
  TGI: 15.6 µM
[55]
  GI50: 1.72 µM
  TGI: 3.72 µM
